Results from PMC4728661, “Cancer Prevention and Health Benefices of Traditionally Consumed Borago officinalis Plants” (Nutrients, 2016).
Marks after values point to notes of the source that are not given here.

Columns and labels:
D. melanogaster [1] = assay: Genotoxicity: Somatic Mutation and Recombination Test (SMART), wing spot test, simple treatments; format: in vivo, Drosophila melanogaster; conditions: H2O2 0.12 M alone (positive control); on Diagnosis, Small Single Spots 1–2 Cells m = 2: key: + (positive); − (negative); on Diagnosis, Total Spots m = 2: key: + (positive); − (negative)
Procedure: The D. melanogaster system was selected for the determination of the safety of B. officinalis consumption as a well-recognized method to analyze vegetable complex mixtures using SMART [31, 32]. This test was used in order to evaluate the genotoxic and antigenotoxic activity of B. officinalis leaves and petioles as well as their selected bioactive compounds [33]. This activity was measured by direct visualization of the occurrence of recessive mutations in the wing hairs of two different D. melanogaster strains. Flies from experiments carried these visible wing genetic markers: the flare (flr) strain flr^3/ln (3LR) TM3, Bd^s and the multiple wing-hair (mwh) strain mwh/mwh. The marker flare (flr^3, 3_38.3) produces individual malformed hairs and the marker multiple wing hairs (mwh, 3_0.3) produces multiple hairs per cell. Larvae used in treatments come from two types of crosses: the standard cross with flr^3/TM3, Bd^S females mated to mwh/mwh males and the reciprocal cross.
Optimal fertile flies were anesthetized under CO2 narcotisation for cross selection and then placed in new vials for fertilization. After that, hybrid eggs from crossing were collected over an 8 h period and emerged larvae (72 ± 4 h later) were cleaned up for a few seconds in sterile distilled water to remove feeding medium rests. For genotoxicity analysis (simple treatments), groups of 100 larvae were transferred into vials containing 0.85 g of Drosophila Instant Medium (Formula 4–24, Carolina Biological Supply, Burlington, NC, USA) wetted with 4 mL of a mixture of distilled water and increasing concentrations of samples: B. officinalis BF and WF (1.25, 2.5, and 5 mg·mL^−1), RO (0.35, 0.7, 1.39 and 2.78 mM), SY (0.16, 0.32, 0.63 and 1.26 mM), SI (0.15, 0.29, 0.58 and 1.16 mM) and the mixture of these three bioactive compounds at each concentration assayed individually. Bioactive compound concentrations were chosen on the basis of their known content in B. officinalis species. […] Larvae were fed on these media until pupation (about 48 h). After emergence, resulting adult flies were sacrificed under CO2 narcotisation and stored in a 70% ethanol solution in sterile water. Emerged adults were counted for toxicity evaluation and transheterozygous wings (mwh flr^+/mwh^+ flr^3) were mounted on microscope slides and wing hair mutations (spots) scored, using a photonic microscope (Nikon) at 400× magnification for genotoxicity and antigenotoxicity evaluation.
For the evaluation of genotoxic effects, the frequencies of spots per fly of each treated series were compared to the concurrent negative control for each class of mutational clone as well as between simple and combined treatments for the same concentration comparisons. […] A multiple-decision procedure was used to categorize results as positive, inconclusive or negative. Inconclusive and positive results were evaluated by the non-parametric U test of Mann, Whitney and Wilcoxon. The inhibition percentage (IP) of genotoxicity was calculated from the total frequencies of spots per wing, following this formula [42]: IP = (genotoxin alone − sample + genotoxin) × 100/(genotoxin alone)(2)

D. melanogaster [2] = assay: Toxicity: survival of Drosophila larvae to emerged adults, simple and combined (H2O2) treatments; format: in vivo, Drosophila melanogaster; conditions: H2O2 0.12 M alone (positive control)
Procedure: Optimal fertile flies were anesthetized under CO2 narcotisation for cross selection and then placed in new vials for fertilization. After that, hybrid eggs from crossing were collected over an 8 h period and emerged larvae (72 ± 4 h later) were cleaned up for a few seconds in sterile distilled water to remove feeding medium rests. […] Bioactive compound concentrations were chosen on the basis of their known content in B. officinalis species. […] Larvae were fed on these media until pupation (about 48 h). After emergence, resulting adult flies were sacrificed under CO2 narcotisation and stored in a 70% ethanol solution in sterile water. […] The determination of Toxicity (T) of treatments in D. melanogaster was performed following this formula [39]: T = (N° of emerging individuals in treatment/N° of emerging individuals in the negative control) × 100(1) Differences in D. melanogaster survival between treatments at each concentration with respect to negative control were analyzed with a Chi-square test. This procedure was also performed for the analysis of each simple treatment with their correspondent combined treatment.

## OO [H2O2, hydrogen peroxide, reference compound]
D. melanogaster [1]
  Diagnosis, Small Single Spots 1–2 Cells m = 2: +
  Diagnosis, Total Spots m = 2: +
  Mutation rate, Large Single Spots >2 Cells m = 5: 0.07 (11) spots/wing
  Mutation rate, Small Single Spots 1–2 Cells m = 2: 0.60 (94) spots/wing
  Mutation rate, Total Spots m = 2: 0.65 (109) spots/wing
  Mutation rate, Twin Spots m = 5: 0.06 (4) spots/wing
D. melanogaster [2]
  Survival: 37.87 * %
